We go through 28 molecules from patent publication US20240279205A1, “NOVEL BENZIMIDAZOLE DERIVATIVE” (Carna Biosciences, Inc., priority 2020, published 2024).

The structures appear in SMILES notation. Counter-ions that a name gives are not always drawn. Where only a bound is given, the exact number is not on record here.

One assay has as its target T1, human STING (hSTING) (Homo sapiens, UniProt Q86WV6).
T1 construct: host or cells: HEK-Blue ISG cells (HEK293-derived SEAP reporter line)
The experiment in a line: Inhibition test of intracellular human STING (hSTING) pathway using SEAP reporter cells (HEK-Blue ISG), stimulation with Compound 3. It is filed as cell-based. Also noted: hSTING inhibitory activity: scale not given here. To be noted: Compound 3 10 nM stimulation, 21 hours; for IC50: read-out: hSTING inhibitory activity. The method in brief: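 HEK-Blue ISG cells with IRF-inducible SEAP reporter, pretreated 1 h with compound (final 0.1 to 10 μM), then stimulated with Compound 3 (final 10 nM) for 21 h at 37° C. Supernatant SEAP measured colorimetrically; IC50 from log-concentration regression, normalized to stimulated (100%) and unstimulated (0%) controls.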

Assay [1] deals with STING activation (IFN-β production in THP-1 cells). The experiment in a line: Human IFN-β production inhibition test by cGAMP stimulation in THP-1 cells. Conditions: 2'3'-cGAMP transfection, 18 hours, IFN-β ELISA; for IC50: Homo sapiens, read-out: IFN-β bioinhibitory activity. Format: cell-based. More on the design: IFN-β bioinhibitory activity: scale not given here. The procedure, abridged:
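PMA-primed (100 nM, overnight) THP-1 cells pretreated 1 h with compound at 0.001 to 1 μM (0.1% DMSO), then transfected with 0.12 μg/well 2′3′-cGAMP and cultured 18 hours. Supernatant IFN-β measured by ELISA; IC50 by regression against log concentration, normalised to cGAMP-only (100%) and unstimulated (0%) controls.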

T1 sequence (Q86WV6 whole entry H232R): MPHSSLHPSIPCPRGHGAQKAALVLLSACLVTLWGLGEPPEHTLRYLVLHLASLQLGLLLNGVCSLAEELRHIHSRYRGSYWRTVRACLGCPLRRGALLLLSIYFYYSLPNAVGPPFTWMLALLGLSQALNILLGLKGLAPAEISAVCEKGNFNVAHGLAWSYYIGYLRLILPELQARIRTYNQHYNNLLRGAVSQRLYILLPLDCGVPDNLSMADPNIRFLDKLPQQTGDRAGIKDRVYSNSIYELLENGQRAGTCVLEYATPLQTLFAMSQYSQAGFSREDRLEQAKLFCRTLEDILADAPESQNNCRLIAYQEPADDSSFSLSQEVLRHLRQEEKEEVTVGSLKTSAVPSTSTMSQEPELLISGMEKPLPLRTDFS

For the molecule `CC(C)Cc1ccc2[nH]c(Nc3c[nH]c4ccc(Cl)nc34)nc2c1` [Embodiment 131, N-(5-Chloro-1H-pyrrolo[3,2-b]pyridin-3-yl)-5-isobutyl-1H-benzo [d]imidazol-2-amine formate], the hSTING inhibitory activity entry on human STING (hSTING) is given as “* *”. Besides, in assay [1], the IFN-β bioinhibitory activity entry is listed as “* *”.

As to `C#Cc1ccc2[nH]c(Nc3c[nH]c4ccc(Cl)nc34)nc2c1` [Embodiment 133, N-(5-Chloro-1H-pyrrolo[3,2-b]pyridin-3-yl)-5-ethynyl-1H-benzo[d] imidazol-2-amine formate], the hSTING inhibitory activity result on human STING (hSTING) is “* *”. In addition, in assay [1], the IFN-β bioinhibitory activity entry is reported as “* * *”.

With `CC#Cc1ccc2[nH]c(Nc3c[nH]c4ccc(Cl)nc34)nc2c1` [Embodiment 136, N-(5-Chloro-1H-pyrrolo[3,2-b]pyridin-3-yl)-5-(prop-1-yn-1-yl)-1H-benzo[d]imidazole-2-amine], at human STING (hSTING), the hSTING inhibitory activity result is reported as “* *”. In addition, the IC50 in assay [1] is 100 to 1000 nM.

For the molecule `C=C(C)c1ccnc2c(Nc3nc4cc(Oc5ccccc5)ccc4[nH]3)c[nH]c12` [Embodiment 144, 5-phenoxy-N-[7-(prop-1-en-2-yl)-1H-pyrrolo[3,2-b]pyridin-3-yl]-1H-benzo[d]imidazole-2-amine], the hSTING inhibitory activity entry on human STING (hSTING) is on record as “* *”. In assay [1], the IC50 was not below 1000 nM.

For `COCC#Cc1ccc2[nH]c(Nc3c[nH]c4ccc(Cl)nc34)nc2c1` [Embodiment 145, N-(5-Chloro-1H-pyrrolo[3,2-b]pyridin-3-yl)-5(3-methoxyprop-1-yn-1-yl)-1H-benzo[d]imidazole-2-amine], the hSTING inhibitory activity entry at human STING (hSTING) is “* *”. Besides, in assay [1], the IC50 fell in the range of 100 to 1000 nM.

For `Clc1ccc2[nH]cc(Nc3nc4c(C5=CCOCC5)cccc4[nH]3)c2n1` [Embodiment 149, N-(5-chloro-1H-pyrrolo[3,2-b]pyridin-3-yl)-4-(3,6-dihydro-2H-pyran-4-yl)-1H-benzo[d]imidazol-2-amine], the figures for the IC50 (on human STING (hSTING); in assay [1]) were 1000 to 10000 nM and 100 to 1000 nM, respectively.

For `Clc1ccc2[nH]cc(Nc3nc4cc(N5CCCCC5)ccc4[nH]3)c2n1` [Embodiment 151, N-(5-Chloro-1H-pyrrolo[3,2-b]pyridin-3-yl)-5-(piperidin-1-yl)-1H-benzo[d]imidazol-2-amine], at human STING (hSTING), the hSTING inhibitory activity result is reported as “* *”. In addition, the IC50 in assay [1] was 100 to 1000 nM.

With `Cn1c(Nc2c[nH]c3ccc(Cl)nc23)nc2c(N3CCCCC3)cccc21` [Embodiment 157, N-(5-chloro-1H-pyrrolo[3,2-b]pyridin-3-yl)-1-methyl-4-(piperidin-1-yl)-1H-benzo[d]imidazole-2-amine formate], the hSTING inhibitory activity entry on human STING (hSTING) is listed as “* *”. The IC50 in assay [1] was 100 to 1000 nM.

As for `CC(C)Oc1ccc2[nH]c(Nc3c[nH]c4ccc(Cl)nc34)nc2c1` [Embodiment 158, N-(5-Chloro-1H-pyrrolo[3,2-b]pyridin-3-yl)-5-isopropoxy-1H-benzo [d]imidazol-2-amine], at human STING (hSTING), the hSTING inhibitory activity entry is “* *”. Moreover, the IC50 in assay [1] was 100 to 1000 nM.

Regarding `COc1ccc2c(c1)nc(Nc1c[nH]c3ccc(Cl)nc13)n2C` [Embodiment 159, N-(5-Chloro-1H-pyrrolo[3,2-b]pyridin-3-yl)-5-methoxy-1-methyl-1H-benzo[d]imidazol-2-amine], the IC50 on human STING (hSTING) lay in the range of 1000 to 10000 nM; in assay [1] it was 100 to 1000 nM.

Take `Fc1cc2nc(Nc3c[nH]c4ccc(Cl)nc34)[nH]c2cc1C(F)(F)F` [Embodiment 160, N-(5-Chloro-1H-pyrrolo[3,2-b]pyridin-3-yl)-5-fluoro-6-(trifluoromethyl)-1H-benzo[d]imidazol-2-amine]: on human STING (hSTING), the hSTING inhibitory activity result is “* * *”. Further, the IC50 in assay [1] was in the range of 100 to 1000 nM.

`Cn1c(Nc2c[nH]c3ccc(Cl)nc23)nc2cc(Br)ccc21` [Embodiment 169, 5-bromo-N-(5-chloro-1H-pyrrolo [3,2-b]pyridin-3-yl)-1-methyl-1H-benzo[d]imidazol-2-amine]: the IC50 on human STING (hSTING) fell in the range of 1000 to 10000 nM. Moreover, the IFN-β bioinhibitory activity entry in assay [1] is “* *”.

As for `COCCn1c(Nc2c[nH]c3ccc(Cl)nc23)nc2cc(C(F)(F)F)ccc21` [Embodiment 178, N-(5-chloro-1H-pyrrolo[3,2-b]pyridin-3-yl)-1-(2-methoxyethyl)-5-(trifluoromethyl)-1H-benzo[d]imidazol-2-amine], the results for the IC50 (at human STING (hSTING); in assay [1]) were not below 10000 nM and not below 1000 nM, respectively.

As for `Cn1c(Nc2c[nH]c3ccc(Cl)cc23)nc2cc(F)ccc21` [Embodiment 185, N-(5-Chloro-1H-indol-3-yl)-5-fluoro-1-methyl-1H-benzo[d]imidazol-2-amine formate], on human STING (hSTING), the hSTING inhibitory activity result was “* *”. The IFN-β bioinhibitory activity entry in assay [1] was “* * *”.

As for `FC(F)(F)c1ccc2c(c1)nc(Nc1c[nH]c3ccc(Cl)nc13)n2C1CC1` [Embodiment 186, N-(5-Chloro-1H-pyrrolo[3,2-b]pyridin-3-yl)-1-cyclopropyl-5-(trifluoromethyl)-1H-benzo[d] imidazol-2-amine], the results for the IC50 (on human STING (hSTING); in assay [1]) were 1000 to 10000 nM and 100 to 1000 nM, respectively.

`Fc1ccc(Oc2ccc3nc(Nc4c[nH]c5ccc(Cl)nc45)n(C4CC4)c3c2)cc1` [Embodiment 187, N-(5-chloro-1H-pyrrolo[3,2-b]pyridin-3-yl)-1-cyclopropyl-6-(4-fluorophenoxy)-1H-benzo[d] imidazole-2-amine]: the hSTING inhibitory activity entry at human STING (hSTING) is “* *”. In addition, in assay [1], the IC50 was 100 to 1000 nM.

As for `C=Cc1ccc2[nH]cc(Nc3nc4ccc(Oc5ccc(F)cc5)cc4n3C3CC3)c2n1` [Embodiment 188, 1-Cyclopropyl-6-(4-fluorophenoxy)-N-(5-vinyl-1H-pyrrolo[3,2-b]pyridin-3-yl)-1H-benzo[d]imidazole-2-amine], the hSTING inhibitory activity result on human STING (hSTING) was “* *”. For the same molecule, the IC50 in assay [1] fell in the range of 100 to 1000 nM.

`Fc1ccc2c(c1)nc(Nc1c[nH]c3ccc(Cl)cc13)n2C1CC1` [Embodiment 189, N-(5-Chloro-1H-indol-3-yl)-1-cyclopropyl-5-fluoro-1H-benzo[d] imidazol-2-amine]: at human STING (hSTING), the hSTING inhibitory activity entry is recorded as “* *”. The IC50 in assay [1] is 100 to 1000 nM.

In the case of `CCc1ccc2[nH]cc(Nc3nc4ccc(Oc5ccc(F)cc5)cc4n3C3CC3)c2n1` [Embodiment 190, 1-Cyclopropyl-N-(5-ethyl-1H-pyrrolo[3,2-b]pyridin-3-yl)-6-(4-fluorophenoxy)-1H-benzo[d]imidazole-2-amine formate], the IC50 on human STING (hSTING) is 1000 to 10000 nM; in assay [1] it was not below 1000 nM.

On to `C=Cc1ccc2[nH]cc(Nc3nc4ccc(Oc5ccc(F)cc5)cc4n3C)c2n1` [Embodiment 191], for which the hSTING inhibitory activity result at human STING (hSTING) is recorded as “* *”. In assay [1], the IC50 was 100 to 1000 nM.

Consider `CCc1ccc2[nH]cc(Nc3nc4ccc(Oc5ccc(F)cc5)cc4n3C)c2n1` [Embodiment 192, N-(5-ethyl-1H-pyrrolo[3,2-b]pyridin-3-yl)-6-(4-fluorophenoxy)-1-methyl-1H-benzo[d]imidazole-2-amine formate], for which the hSTING inhibitory activity result at human STING (hSTING) was “* *”. Also, the IC50 in assay [1] was 100 to 1000 nM.

With `Cn1c(Nc2c[nH]c3ccc(Cl)cc23)nc2ccc(Oc3ccc(F)cc3)cc21` [Embodiment 195, N-(5-Chloro-1H-indol-3-yl)-6-(4-fluorophenoxy)-1-methyl-1H-benzo[d]imidazol-2-amine], the hSTING inhibitory activity result at human STING (hSTING) was “* * *”. For the same molecule, in assay [1], the IFN-β bioinhibitory activity entry is “* *”.

Consider `Fc1ccc(Oc2ccc3nc(Nc4c[nH]c5ccc(Cl)cc45)n(C4CC4)c3c2)cc1` [Embodiment 196, N-(5-Chloro-1H-indol-3-yl)-1-cyclopropyl-6-(4-fluorophenoxy)-1H-benzo[d]imidazol-2-amine], for which, at human STING (hSTING), the hSTING inhibitory activity result is reported as “* * *”. Moreover, the IFN-β bioinhibitory activity result in assay [1] is “* *”.

On to `Cn1c(Nc2c[nH]c3ccc(Cl)nc23)nc2cc(OC(F)(F)F)ccc21` [Embodiment 210, N-(5-Chloro-1H-pyrrolo[3,2-b]pyridin-3-yl)-1-methyl-5-(trifluoromethoxy)-1H-benzo[d] imidazol-2-amine], for which the hSTING inhibitory activity result on human STING (hSTING) is reported as “* *”. In addition, in assay [1], the IFN-β bioinhibitory activity entry was “* *”.

With `CCCn1c(Nc2c[nH]c3ccc(Cl)cc23)nc2cc(C(F)(F)F)ccc21` [Embodiment 212, N-(5-Chloro-1H-indol-3-yl)-1-propyl-5-(trifluoromethyl)-1H-benzo[d]imidazo-2-amine], on human STING (hSTING), the hSTING inhibitory activity result was “* * *”. For the same molecule, in assay [1], the IFN-β bioinhibitory activity result was “* * *”.

As for `C=CCn1c(Nc2c[nH]c3ccc(Cl)cc23)nc2cc(C(F)(F)F)ccc21` [Embodiment 213, 1-allyl-N-(5-chloro-1H-indol-3-yl)-5-(trifluoromethyl)-1H-benzo[d]imidazol-2-amine], the hSTING inhibitory activity entry on human STING (hSTING) is “* * *”. For the same molecule, in assay [1], the IFN-β bioinhibitory activity result is “* *”.

With `C#CCn1c(Nc2c[nH]c3ccc(Cl)cc23)nc2cc(C(F)(F)F)ccc21` [Embodiment 214, N-(5-Chloro-1H-indol-3-yl)-1-(pro-2-yl)-5-(trifluoromethyl)-1H-benzo[d]imidazol-2-amine], on human STING (hSTING), the hSTING inhibitory activity entry is recorded as “* * *”. The IFN-β bioinhibitory activity entry in assay [1] is “* * *”.

With `FC(F)(F)c1ccc2c(c1)nc(Nc1c[nH]c3ccc(Cl)cc13)n2CC1CC1` [Embodiment 215, N-(5-Chloro-1H-indol-3-yl)-1-(cyclopropylmethyl)-5-(trifluoromethyl)-1H-benzo[d] imidazol-2-amine], the hSTING inhibitory activity result on human STING (hSTING) is on record as “* * *”. Moreover, the IFN-β bioinhibitory activity result in assay [1] is “* *”.
